Tests used:
[1] = molecular target: T1, Muscarinic acetylcholine receptor M5 (Homo sapiens) (UniProt P08912); assay: Agonist activity at M5-ACh receptor-FLASH/CFP expressed in HEK293 cells assessed as half-maximal activation time at 100 uM to 1 mM by FRET method; format: functional, cell-based
T1 sequence (whole entry): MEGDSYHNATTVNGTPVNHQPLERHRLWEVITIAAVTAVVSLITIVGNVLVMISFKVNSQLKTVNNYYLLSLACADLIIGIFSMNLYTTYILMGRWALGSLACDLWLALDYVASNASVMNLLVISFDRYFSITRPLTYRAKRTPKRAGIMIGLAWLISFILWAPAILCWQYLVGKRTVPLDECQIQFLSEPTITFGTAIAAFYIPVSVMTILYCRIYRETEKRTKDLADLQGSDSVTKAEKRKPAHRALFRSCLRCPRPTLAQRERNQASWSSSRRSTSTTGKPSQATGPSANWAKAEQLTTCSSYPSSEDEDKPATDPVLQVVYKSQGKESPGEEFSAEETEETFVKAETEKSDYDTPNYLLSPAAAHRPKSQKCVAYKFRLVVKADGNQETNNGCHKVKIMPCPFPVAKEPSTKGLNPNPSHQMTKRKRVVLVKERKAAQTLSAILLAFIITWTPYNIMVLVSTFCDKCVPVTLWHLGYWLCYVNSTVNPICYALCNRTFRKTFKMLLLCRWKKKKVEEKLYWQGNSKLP

[2] = molecular target: T1, Muscarinic acetylcholine receptor M5 (Homo sapiens); assay: Agonist activity at M5-ACh receptor-FLASH/CFP expressed in HEK293 cells assessed as rate constant at 100 uM to 1 mM by FRET method; format: functional, cell-based
[3] = molecular target: Muscarinic acetylcholine receptor M3 (Homo sapiens, UniProt P20309); assay: Activation of M3-ACh receptor-FLASH/CFP expressed in HEK293 cells assessed as FRET signal; format: cell-based
[4] = molecular target: T2, Muscarinic acetylcholine receptor M5 (Homo sapiens, UniProt P08912); assay: Activation of M5-ACh receptor-FLASH/CFP expressed in HEK293 cells assessed as FRET signal; format: cell-based
T2 sequence (P08912 whole entry): T1 sequence (whole entry)

[5] = molecular target: T3, Muscarinic acetylcholine receptor M1 (Homo sapiens, UniProt P11229); assay: Activation of M1-ACh receptor-FLASH/CFP expressed in HEK293 cells assessed as FRET signal; format: cell-based
T3 sequence (P11229 whole entry): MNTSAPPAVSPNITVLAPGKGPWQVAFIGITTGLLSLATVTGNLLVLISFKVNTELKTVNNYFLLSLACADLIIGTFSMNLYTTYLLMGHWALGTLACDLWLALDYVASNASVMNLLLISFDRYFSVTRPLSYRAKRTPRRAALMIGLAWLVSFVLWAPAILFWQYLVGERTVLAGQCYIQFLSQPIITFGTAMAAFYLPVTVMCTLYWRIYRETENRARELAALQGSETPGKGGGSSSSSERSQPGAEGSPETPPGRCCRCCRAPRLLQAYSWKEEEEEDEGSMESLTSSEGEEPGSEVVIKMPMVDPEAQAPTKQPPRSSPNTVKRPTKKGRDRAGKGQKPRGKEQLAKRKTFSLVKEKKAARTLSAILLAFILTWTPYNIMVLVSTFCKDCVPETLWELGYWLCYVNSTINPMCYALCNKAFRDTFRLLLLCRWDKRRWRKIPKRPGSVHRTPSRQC

Chain of Muscarinic acetylcholine receptor M3 (P20309 whole entry): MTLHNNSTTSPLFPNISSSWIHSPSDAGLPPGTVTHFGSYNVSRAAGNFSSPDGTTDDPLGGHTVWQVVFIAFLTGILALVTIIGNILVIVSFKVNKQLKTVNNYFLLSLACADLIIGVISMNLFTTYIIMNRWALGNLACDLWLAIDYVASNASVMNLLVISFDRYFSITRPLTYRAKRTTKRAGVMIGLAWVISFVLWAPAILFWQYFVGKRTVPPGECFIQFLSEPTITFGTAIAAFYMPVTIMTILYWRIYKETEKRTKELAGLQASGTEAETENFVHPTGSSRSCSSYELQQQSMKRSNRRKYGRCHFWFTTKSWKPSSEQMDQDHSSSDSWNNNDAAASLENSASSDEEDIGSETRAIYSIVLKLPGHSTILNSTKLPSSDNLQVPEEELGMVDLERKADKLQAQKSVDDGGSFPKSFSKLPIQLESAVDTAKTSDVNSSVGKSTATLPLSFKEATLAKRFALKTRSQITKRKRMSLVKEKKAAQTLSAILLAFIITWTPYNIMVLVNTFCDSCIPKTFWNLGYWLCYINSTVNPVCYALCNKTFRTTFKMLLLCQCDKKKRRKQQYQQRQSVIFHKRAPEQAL

CC(=O)OCC[N+](C)(C)C
TIME [1]: 1.81e-05 h | Activity [2]: 15.4 s⁻¹

C[N+](C)(C)CCOC(N)=O
TIME [1]: 1.89e-05 h | Activity [2]: 14.7 s⁻¹

C[C@@H]1O[C@H](C[N+](C)(C)C)C[C@H]1O [MUSCARINE CHLORIDE]
EC50 [3]: 1000 nM | EC50 [4]: 1300 nM | TIME [1]: 2e-05 h | Activity [2]: 13.9 s⁻¹

C[N+](C)(C)CC#CCN1CCCC1=O [OXOTREMORINE METHIODIDE]
EC50 [5]: 7400 nM | EC50 [3]: 1800 nM | EC50 [4]: 2300 nM | TIME [1]: 2.89e-05 h | Activity [2]: 9.6 s⁻¹

Source: ChEMBL document CHEMBL1671751, “FRET-based sensors for the human M1-, M3-, and M5-acetylcholine receptors” (Bioorg Med Chem, 2011)
